In patent US7169768B1, “Method of decreasing atherosclerosis and its complications” (priority 1997, dated 2007):

Experiment: Retrospective questionnaire study of patient-reported cardiac events (heart attack, coronary artery bypass or angioplasty)
Type: in vivo, patients
Details: for Events/Year: cardiac events per subject year, patients on drug for at least one year; for Cardiac Events: number of cardiac events (history of heart attack, coronary artery bypass or angioplasty) in patients on drug for at least one year; for observed difference between the proportions vs Total Control: treated group vs Total Control (Groups 1 + 4); for heart attacks compared with controls (in words): treated patients vs controls
Experimental: A retrospective study was performed which compared the rates of patient reported heart attack in several groups: 1—control group of males entering the urology office for any routine complaint. 2—a group of prostate cancer patients treated with Leuprolide acetate, a LHRH inhibitor. 3—a group of prostate cancer patients treated with Goserelin acetate (Zoladex), a LHRH inhibitor. 4—a group of prostate cancer patients not treated with hormonal manipulation (neither Leuprolide or Goserelin). 5—a group of patients treated with Finasteride (another form of hormonal manipulation). 6—all patients on LHRH inhibitors (group 2+group 3). The patients on either leuprolide acetate or goserelin acetate were treated with the recommended doses indicated for the treatment of prostatic carcinoma, at either one or three month intervals depending on the preparation used. Leuprolide was dosed at 7.5 mg monthly (single intramuscular injection) or at 22.5 mg at 3 month intervals (single intramuscular injection). Goserelin was dosed at 3.6 mg monthly (subcutaneous injection) or at a dose of 10.8 mg at 3 month intervals (subcutaneous injection). The various groups of office patients were given a questionnaire. In groups 2, 3 and 5 only those on drug for at least one year were considered. Cardiac event is defined as either the history of a heart attack or occurrence of coronary artery bypass or angioplasty. In control groups only events occurring in the 3 years prior to the questionnaire are charted.

Row | SMILES | Events/Year | Cardiac Events | observed difference between the proportions vs Total Control | heart attacks compared with controls (in words) | observed difference between the proportions vs Group 1 (Control) (Group 5 vs Group 1 (control, no cancer))
1 | CC(C)C[C@H](NC(=O)[C@@H](COC(C)(C)C)NC(=O)[C@H](Cc1ccc(O)cc1)NC(=O)[C@H](CO)NC(=O)[C@H](Cc1c[nH]c2ccccc12)NC(=O)[C@H](Cc1cnc[nH]1)NC(=O)[C@@H]1CCC(=O)N1)C(=O)N[C@@H](CCCNC(=N)N)C(=O)N1CCC[C@H]1C(=O)NNC(N)=O [goserelin acetate, pyro-Glu-His-Trp-Ser-Tyr-D-Ser(Bu)-Leu-Arg-Pro-Azgly-NH2 acetate] | .0161 | 1 | 0.0177 | fewer heart attacks than controls | 
2 | CC(=O)O.CCNC(=O)[C@@H]1CCCN1C(=O)[C@H](CCCNC(=N)N)NC(=O)[C@H](CC(C)C)NC(=O)[C@@H](CC(C)C)NC(=O)[C@H](Cc1ccc(O)cc1)NC(=O)[C@H](CO)NC(=O)[C@H](Cc1c[nH]c2ccccc12)NC(=O)[C@H](Cc1c[nH]cn1)NC(=O)[C@@H]1CCC(=O)N1 [leuprolide acetate, 5-oxo-L-prolyl-L-histidyl-L-tryptophyl-L-seryl-L-tyrosyl-D-leucyl-L-leucyl-L-arginyl-N-ethyl-L-prolinamide acetate salt] | .00847 | 1 | 0.0253 | fewer heart attacks than controls | 
3 | CC(C)(C)NC(=O)[C@H]1CC[C@H]2[C@@H]3CC[C@H]4NC(=O)C=C[C@]4(C)[C@H]3CC[C@]12C [Finasteride] | .0165 | 4 |  | fewer heart attacks than control | 0.0186
